{"source": "patent US12329736B2", "about": "“Carboxylate ligand modified ferric iron hydroxide compositions for use in the treatment or prevention of iron deficiency associated with liver diseases” (Nemysis Ltd., priority 2020, dated 2025)", "conditions": "Wistar rats", "note": "Entries after “also recorded” stand apart in the source; their conditions may differ.", "excerpt": "5-6 week old Wistar rats (n=72; 36 female and 36 male) were housed in harmonious social groups (2-3 animals per cage and sex) in a light- and temperature-controlled room with ad libitum access to standard pellet diet and water. Rats were acclimatised for 7 days for male rats and 14 days for female rats, prior to treatment commencement.\nAnimals were gavaged for 28 days (n=36; 18 female and 18 male) or 90 days (n=36; 18 female and 18 male). Following necropsy, livers were harvested, flash frozen in liquid nitrogen and stored at −80° C. until further analysis.\nLivers were thawed at room temperature, and a sample of approximately 800 mg was cut out, cleaned from any fat and weighed on a balance accurate to 0.0001 g. Weighed samples were digested in concentrated HNO3 (Nitric acid ≥65%, 84380-2.5L-M, Merck) and H2O2 (Hydrogen peroxide solution, 16911-1L-F, Sigma-Aldrich) at a 5:1 ratio. Samples were digested at room temperature for 24 h and if necessary at 40° C. for another 24 h to allow complete digestion. Following complete digestion samples were diluted 1:4 in UHP water to achieve a final HNO3 concentration of 6-8%. Total elemental analysis for iron was carried out on a Jobin Yvon Horiba Ultima 2C ICP-OES (Instrument SA, Longjumeau, France), equipped with a concentric nebulizer and cyclonic spray chamber. Analysis was by peak profile with a window size of 0.025 nm with 21 increments per profile and an integration time of 0.5 seconds per increment. Analytical line was 259.940 nm. Samples and blanks were analysed with iron standards (0-20 mg/L) prepared in 6-8% HNO3, using a 1000 mg/L Fe ICP solution. Pooled-sample standards (0-20 mg/L) were prepared, using a pool of all final digests, to allow detection of possible matrix effects. Each sample/blank/standard was analysed in triplicates and the average value used for the calculations. The sample induction system (sample tubing, nebuliser and spray chamber) was thoroughly flushed between samples, blanks and standards.\nStatistical analyses were performed in GraphPad Prism 6. One-way ANOVA, followed by Tukey's multiple comparison's test, was used to assess the treatment effect, irrespective of the length of treatment. Two-way ANOVA was used to assess the effects of time (i.e. treatment length), treatment and the time x treatment interactions, followed by Bonferroni's multiple comparisons test. Two-way ANOVA was also used to assess the effect of sex, treatment and the sex x treatment interaction. P values <0.05 were considered significant in all analyses. Data are presented as means±SDs.", "data": [{"molecule": "O=S(=O)([O-])[O-].[Fe+2]", "note": "[FeSO4, ferrous sulphate]", "values": [{"measurement": "Accumulation of liver iron over time with repeated oral dosing", "setting": "28 days versus 90 days of oral administration, FIG. 1B", "result": "iron seems to accumulate over time; also recorded: does accumulate"}, {"measurement": "Total iron content in liver samples versus vehicle control group", "setting": "daily oral gavage 28 or 90 days, IHAT 28.5 mg iron/kg, FeSO4 20.00 mg iron/kg, FIG. 1A", "result": "significantly increased; also recorded: significant difference"}]}]}
